Entries after “also recorded” stand apart in the source; their conditions may differ. Where no end group is shown, it is not given here.
Assays:
[1] = Longer-term obesity model in HFD-fed mice; conditions: for blood glucose levels: Days 0, 1, 10 and 15; for blood glucose levels / average daily food intake: compared to the untreated mice; for plasma insulin levels on Day 15: FIG. 8C right panel; for liver weight / subcutaneous white adipose tissue (sWAT) weight: day 19 terminal necropsy, vs PBS control; for change in body weight: tail vein dosing Day 0, 4, 7, 10, 14, 18, weighed every 2 days; for collagen staining (fibrosis), picrosirius red liver sections / hepatocellular ballooning and steatosis, H&E liver histology: vs vehicle-treated mice
Method: Mice (Male C57BL/6) were of approximately 13 weeks of age were housed 4 mice per cage. Following 2 weeks of acclimatation, mice were introduced to 60% kcal HFD (Research Diets D12492). Cages were changed once, then changed once a week. Weekly body weights and non-fasted blood glucose were collected.
Mice were injected by tail vein with vehicle or the drugs on Day 0, Day 4, Day 7, Day 10, Day 14, and Day 18. Body weights were measured every 2 days. Change in body weight was calculated and plotted.
Cumulative food intake was measured between day 0 and 3, between day 4 and 7, between day 7 and day 11, and between day 11 and day 14, and represented as average daily food intake. For food consumption, remaining food was weighed on days 3, 8, and 15, and subtracted from the starting weight. This value was then normalized to the number of mice in the cage, and the number of days the mice had access to the food prior to weighing.
Blood glucose levels were measured on Days 0, 1, 10 and 15 and plotted.
On day 19 during terminal necropsy, liver and subcutaneous white adipose tissue were recovered weighed from treated animals.
To further analyze the changes in liver, histopathological analysis was conducted. Briefly, the liver tissue was stained with hematoxylin and eosin (H&E) and evaluated using standard techniques.

[2] = Glucose tolerance test (GTT) model in HFD-fed mice; format: in vivo, mice (Male C57BL/6); conditions: i.v. treatment, 18 hours fast, 2 g/kg glucose, 15 min to 2 hours
Method: Cages were changed once, then changed once a week.
The mice administered the above treatment by i.v. injections. The mice were then fasted for 18 hours and administered a dose of 2 g/kg glucose by i.v. injections. Blood samples were drawn by tail clip bleeding at 15, 30 and 60 minutes post dosing and cardiac bleeding was used at 2 hours after glucose injection as end-point.

[3] = target: T1, glucose-dependent insulinotropic polypeptide receptor (GlPR) (Homo sapiens, UniProt P48546); test: GeneBLAzer GlPR-CRE-bla HEK293T cell-based reporter assay; conditions: 5 hours incubation; for 460/530 ratio, indicative of the activation of GlPR: increasing amounts
T1 construct: host or cells: GeneBLAzer GIPR-CRE-bla HEK293T cells
T1 sequence (P48546 22-466): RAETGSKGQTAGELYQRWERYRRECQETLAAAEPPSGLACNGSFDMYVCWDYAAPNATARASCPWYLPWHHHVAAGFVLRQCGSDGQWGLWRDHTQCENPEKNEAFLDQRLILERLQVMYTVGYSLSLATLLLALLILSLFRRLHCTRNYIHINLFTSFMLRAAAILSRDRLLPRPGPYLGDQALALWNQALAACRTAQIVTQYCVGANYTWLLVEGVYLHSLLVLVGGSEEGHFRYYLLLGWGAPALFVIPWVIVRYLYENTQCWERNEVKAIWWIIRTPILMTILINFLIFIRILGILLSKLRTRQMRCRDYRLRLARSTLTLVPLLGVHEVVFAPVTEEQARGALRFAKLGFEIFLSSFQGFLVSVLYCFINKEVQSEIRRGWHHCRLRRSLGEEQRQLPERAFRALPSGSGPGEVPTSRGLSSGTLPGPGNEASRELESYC
Method: This assay is diagrammatically represented in FIG. 3A. […] In the presence of the β-lactamase LiveBLAzer™ substrate, cells expressing β-lactamase fluoresce blue (460 nm), while those not expressing β-lactamase fluoresce green (530 nm); higher 460/530 ratio indicates the activation of GlPR.
Briefly, GeneBLAzer® GlPR-CRE-bla HEK293T cells were added to wells of black-wall assay plates. […] To each well, LiverBLAzer-FRET B/G substrate mixture was added. The plate was covered with plate sealer and incubated at room temperature for 2 hours in the dark. Fluorescence emission was measured on SpectraMax plate reader at 460 nm and 530 nm with excitation set to 409 nm. After subtraction of background, average value at 460 nm (blue color) was divided by average value at 530 nm (green color) to obtain the 460/530 ratio.

GlP receptor (GlPR) = target: T2, GlP receptor (GlPR) (Rattus norvegicus, UniProt P43219); test: cAMP-Glo assay in rat insulinoma INS-1 cells harboring a cAMP-luciferase reporter gene; format: cell-based; conditions: 1 hour glucose, then 2 hour incubation with increasing amounts
T2 construct: endogenous in cells; host or cells: rat INS-1 insulinoma cells carrying a cAMP reporter (a cAMP-luciferase reporter in A2, the pGloSensor-22F biosensor in A4)
T2 sequence (P43219 19-455): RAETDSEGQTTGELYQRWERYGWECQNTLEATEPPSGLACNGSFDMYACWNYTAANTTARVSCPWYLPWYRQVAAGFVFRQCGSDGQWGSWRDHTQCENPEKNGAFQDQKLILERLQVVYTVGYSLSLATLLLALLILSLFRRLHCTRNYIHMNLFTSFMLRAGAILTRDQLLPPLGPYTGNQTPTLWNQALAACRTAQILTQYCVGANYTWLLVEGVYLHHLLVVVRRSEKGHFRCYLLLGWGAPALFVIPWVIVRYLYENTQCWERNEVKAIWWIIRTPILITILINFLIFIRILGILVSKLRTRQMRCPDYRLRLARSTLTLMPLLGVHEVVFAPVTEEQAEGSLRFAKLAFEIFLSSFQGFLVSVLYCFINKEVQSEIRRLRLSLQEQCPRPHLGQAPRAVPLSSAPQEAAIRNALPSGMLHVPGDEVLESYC
Source text: Rat insulinoma INS-1 cells harboring a cAMP-luciferase reporter gene were used to study the activation of GlPR. Without wishing to be bound by theory, the activation of GlPR leads to temporary depletion of ATP because of consumption of ATP in cyclization reaction to produce cAMP as well as by phosphorylation by protein kinase A of its substrate. Without wishing to be bound by theory, the temporary depletion of ATP leads to an inhibition of luciferase activity, which needs ATP as a substrate.

[4] = target: GlP receptor (GlPR) of rat INS-1 insulinoma cells (UniProt P43219)
[5] = target: glucose-dependent insulinotropic polypeptide receptor (GlPR) on GeneBLAzer GlPR-CRE-bla HEK293T cells (UniProt P48546); test: cell-based or functional assay
GlPR = target: T3, GlPR (Rattus norvegicus, UniProt P43219); test: pGloSensor-22F cAMP biosensor assay in rat INS-1 cells (GlPR agonism and antagonism); format: cell-based; set-up: dose or concentration left out as unconfirmed; conditions: increasing doses mixed with GlP(Ag)
T3 construct: endogenous in cells; host or cells: rat INS-1 insulinoma cells carrying a cAMP reporter (a cAMP-luciferase reporter in A2, the pGloSensor-22F biosensor in A4)
T3 sequence (P43219 19-455): T2 sequence (P43219 19-455)
Method: Briefly, rat INS-1 cells having pGloSensor-22F (Promega) were constructed and used to evaluate GlPR agonism and antagonism. […] The conformational change leads to the activation of the luciferase enzyme, thereby allowing detection of activation of GlPR, which produces cAMP upon activation.
Immediately after the addition, the luminescence of the cells was measured, normalized using the basal luminescence and plotted.

[6] = human NASH patients; cited from earlier work
[7] = tested on: rat insulinoma INS-1 cells; test: in vitro glucose-stimulated insulin secretion (GSIS) in INS-1 cells; format: cell-based; conditions: 1 hour glucose, then 2 hour incubation; ELISA
Source text: X is a known inducer of GSIS.

tirzepatide [reference compound]
blood glucose levels [1]: decrease in blood glucose | plasma insulin levels on Day 15 [1]: significant decrease in the levels of insulin | average daily food intake [1]: decrease in food intake | hepatocellular ballooning and steatosis, H&E under higher magnifications ([1]; compared to untreated animals): significant decrease in hepatocellular ballooning and steatosis | liver weight [1]: livers of control mice that received only PBS were much heavier | subcutaneous white adipose tissue (sWAT) weight [1]: decreased | change in body weight [1]: progressive weight loss | collagen staining (fibrosis), picrosirius red liver sections [1]: decrease in collagen staining | hepatocellular ballooning and steatosis, H&E liver histology [1]: decrease in hepatocellular ballooning and steatosis | serum insulin following glucose administration [2]: rapid induction of insulin | serum glucose following glucose administration ([2]; vs PBS control): much smaller increase in serum glucose | 460/530 ratio, indicative of the activation of GlPR [3]: dose-dependent and saturable increase in 460/530 ratio | luciferase activity (cAMP-Glo), activation of GlPR (GlP receptor (GlPR)): dose-dependent and saturable inhibition of luciferase with similar potency

tirzepatide (peptide)
EC50 (read off the curve): fall of cAMP-Glo luminescence, rat INS-1 cells [4]: 0.003 pM

dulaglutide [reference compound]
blood glucose levels [1]: decrease in blood glucose | plasma insulin levels on Day 15 [1]: significant decrease in the levels of insulin | plasma insulin levels on Day 1 ([1]; between 15 and 120 minutes after treatment): rapid decrease in insulin levels | average daily food intake [1]: decrease in food intake | liver weight [1]: livers of control mice that received only PBS were much heavier | subcutaneous white adipose tissue (sWAT) weight [1]: decreased | change in body weight [1]: progressive weight loss | tolerability, clinical observations ([1]; tail vein dosing Day 0 to Day 18): well tolerated and no overt toxicities were noted | collagen staining (fibrosis), picrosirius red liver sections [1]: decrease in collagen staining | hepatocellular ballooning and steatosis, H&E liver histology [1]: decrease in hepatocellular ballooning and steatosis

GlP(Ag)-Fc fusion protein (from UniProt P09681 52-93)
EC50 of GlPR activation (460/530 ratio, GeneBLAzer GlPR-CRE-bla HEK293T beta-lactamase reporter) [5]: 11.8 pM | EC50 (read off the curve): fall of cAMP-Glo luminescence, rat INS-1 cells [4]: 0.007 pM

GlP(AntPro3NH2): GlP antagonist peptide derivative of GlP(AntPro3), NH2 form (YAPGTFISDYSIAMDKIHQQDFVNWLLAQKGKKNDWKHNITQ-NH2)
inhibition of GlP(Ag)-induced activation of the cAMP-luciferase reporter gene (GlPR antagonism) (GlPR): more potent inhibition of GlP agonist signaling than the others tested; also recorded: maximal level of a dose-dependent inhibition of GlP(Ag)-induced activation

GlP(AntPro3): GlP Antagonist (amino acids 1-42, having a E3P substitution); SEQ ID NO: 97 (YAPGTFISDYSIAMDKIHQQDFVNWLLAQKGKKNDWKHNITQ)
inhibition of GlP(Ag)-induced activation of the cAMP-luciferase reporter gene (GlPR antagonism) (GlPR): more potent inhibition of GlP agonist signaling than the others tested; also recorded: maximal level of a dose-dependent inhibition of GlP(Ag)-induced activation

Pegbelfermin [Pegbelfermin (BMS-986036)]
liver fat content [6]: reduce liver fat content

B1: GlP(Ag)-Fc-FGF19: GlP fused to FGF19 via a hinge-CH2-CH3 Fc domain derived from IgG1; SEQ ID NO: 88 (protein)
chain: YAEGTFISDYSIAMDKIHQQDFVNWLLAQKGKKNDWKHNITQPCPAPEAAGGPSVFLFPPKPKDTLMISRTPEVTCVVVDVSHEDPEVKFNWYVDGVEVHNAKTKPREEQYNSTYRVVSVLTVLHQDWLNGKEYKCKVSNKALPAPIEKTISKAKGQPREPQVYTLPPSRDELTKNQVSLTCLVKGFYPSDIAVEWESNGQPENNYKTTPPVLDSDGSFFLYSKLTVDKSRWQQGNVFSCSVMHEALHNHYTQKSLSLSPGKIEGRMDRDSSPLVHYGWGDPIRLRHLYTSGPHGLSSCFLRIRADGVVDCARGQSAHSLLEIKAVALRTVAIKGVHSVRYLCMGADGKMQGLLQYSEEDCAFEEEIRPDGYNVYRSEKHRLPVSLSSAKQRQLYKNRGFLPLSHFLPMLPMVPEEPEDLRGHLESDMFSSPLETDSMDPFGLVTGLEAVRSPSFEK
insulin in the culture supernatant (GSIS) [7]: stimulated insulin production to a similar, if not greater magnitude than dulaglutide or tirzepatide | EC50 ([3]; 460/530 ratio, purified proteins, read-out: EC50 of GlPR activation): 13.1 pM | 460/530 ratio, indicative of the activation of GlPR [3]: dose-dependent and saturable increase in 460/530 ratio | luciferase activity (cAMP-Glo), activation of GlPR (GlP receptor (GlPR)): dose-dependent and saturable inhibition of luciferase with similar potency

From patent publication US20250066446A1, “FUSION PROTEINS FOR THE TREATMENT OF CARDIOMETABOLIC DISEASES” (Shattuck Labs, Inc., priority 2022, published 2025)
